We go through five compounds from publication PMC12294314, “Bioactive Properties of Persea americana Peel Extract and Their Role in Hypercholesterolemia Management and Cardiovascular Health” (Foods, 2025).

Series [1] in a line: Permeation of extract compounds across Caco-2 monolayer (Papp). In kind it is in vitro ADME, human. Particulars: human. The method, then: (§1) The permeation of the extract in Caco-2 cells was evaluated for three phenolic compounds previously identified and quantified, namely chlorogenic acid, catechin, and epicatechin. […] After 6 h, a sample was collected from the basolateral side and analyzed by HPLC-DAD, using a LiChroCART® 250-4 LiChrospher® 100 RP-18 (5 μm) column (Merck KGaA, Darmstadt, Germany), following the conditions described in a previous study.

In series [2] the test system is Caco-2 cells. The series can be described thus: Cholesterol permeation across differentiated Caco-2 monolayer. In kind it is cell-based, human. Particulars: cholesterol 5 mM apical, 6 h, extract 0.240 mg/mL, ezetimibe 0.1 mM (methods) / 0.01 mM (Figure 3 legend). The method, then: The cholesterol permeation assays were carried out by following the protocol described by Arantes et al.. Caco-2 cells were cultured in a 12-well microplate with inserts (A = 1.1 cm^2) and maintained until differentiation. To evaluate the integrity of the membrane, transepithelial electrical resistance (TEER) of the formed membrane was measured. When the TEER value exceeded 250 Ω·cm^2, it was considered that the membrane was formed.
Subsequently, 0.5 mL of the solutions to be analyzed was added on the apical side of each insert: cholesterol (5 mM) (control), extract (0.240 mg/mL), extract (0.240 mg/mL) with cholesterol (5 mM), and ezetimibe (0.1 mM) with cholesterol (5 mM). On the basolateral side, 1.5 mL of the Hank’s Balanced Salt Solution (HBSS) was added. The cells were incubated at 37 °C in a 5% CO2 atmosphere for 6 h. After this period, the basolateral solution of each well was collected and analyzed by high-performance liquid chromatography coupled to a diode-array detector (HPLC-DAD) using an Elite LaChrom® (HITACHI, VWR, Tokyo, Japan), with an Autosampler L-2200, a Column Oven L-2300, and a Diode Array Detector L 2455 (VWR, Radnor, PA, USA). The column used was LiChroCART® 250-4 LiCrosphere®100 RP-8 (5 μm) (Merk, Darmstadt, Germany). The conditions followed were the ones presented by Pinto et al.. […]

In series [3] the test system is Caco-2 cells. The series can be described thus: Permeation of extract compounds across Caco-2 monolayer (Papp). The class given is in vitro ADME, human. The method, then: as §1
Background: Caco-2 monolayers are a common model of the intestinal barrier.

In series [4] the test system is HepG2 cells. As to the kind of experiment: Reactive oxygen species (ROS) production in HepG2 cells (DCFDA). The class given is cell-based, human. Particulars: TBHP 200 µM alone, 6 h, PBS control = 100%. The method, then: The quantification of reactive oxygen species (ROS) produced in the HepG2 cell line was assessed. HepG2 cells were plated at a concentration of 2.5 × 10^4 cells/well in a black, transparent-bottom 96-well microplate and incubated for 24 h. Afterward, a solution of the 2′,7′–dichlorodifluorescin diacetate (DCFDA) (0.1 mM) was added to the cells and they were incubated in the dark for 45 min. The solution was then removed, and the following samples were applied: a control with only the PBS, tert-butyl hydroperoxide (TBHP) at 200 µM, the extract at 0.164 mg/mL, and a combination of the extract and THBP with their final concentrations being 0.164 mg/mL and 200 µM, respectfully. The microplate was incubated for 6 h in the dark, after which fluorescence was measured with excitation at 495 nm and emission at 527 nm, both at 37 °C (SpectraMax® GEMINI XPS/EM, Molecular Devices®, San Jose, CA, USA). ROS production was determined using Equation (1) by considering that the fluorescence produced by the control group was 100%.(1) ROS Production % =AbsSample/AbsControl × 100 where AbsSample corresponds to the absorbance of the samples and AbsControl corresponds to the absorbance of the control. The assays were carried out in quadruplicate.

Where two headings read alike, the source gives them in different places.

As usually defined, the Papp is a coefficient for how fast a substance crosses the barrier. For the compound `O=C(/C=C/c1ccc(O)c(O)c1)O[C@@H]1C[C@](O)(C(=O)O)C[C@@H](O)[C@H]1O` [Chlorogenic Acid (3), Chlorogenic Acid], the Papp at 6 h, 0.24 mg/mL in series [1] (Caco-2, apical sample: extract (0.240 mg/mL), Caco-2, 6 h, read-out: Papp) was 6.5 ×10⁻⁶ cm/s; in series [1] (Caco-2, apical sample: extract, Caco-2, read-out: Permeability class (from Papp)) it was 1 to 10 ×10⁻⁶ cm/s. Turning to `O=C1[C@H](CC[C@H](O)c2ccc(F)cc2)[C@@H](c2ccc(O)cc2)N1c1ccc(F)cc1` [ezetimibe], the “Reduction in cholesterol permeability” value in series [2] is recorded as 62 ± 5%. Take `Oc1cc(O)c2c(c1)O[C@H](c1ccc(O)c(O)c1)[C@H](O)C2` [Epicatechin (15), (−)-Epicatechin]: the apparent permeability (Papp) at 6 h, 0.24 mg/mL in series [1] (Caco-2, Permeability class (from Papp)) is over 10 ×10⁻⁶ cm/s. Besides, the apparent permeability (Papp) in series [3] (human, Caco-2, 6 h, 0.24 mg/mL) is 24.0 10^−6 cm/s. In the case of `CC(C)(C)OO` [TBHP, tert-butyl hydroperoxide], the “ROS production (% of control)” value in series [4] is “approximately 395%”. In the case of `Oc1cc(O)c2c(c1)OC(c1ccc(O)c(O)c1)C(O)C2` (single isomer, unassigned; (+)) [Catechin (13), (+)-Catechin], in series [3] (Caco-2), the Papp is 14.4 10^−6 cm/s.
